Assay results published in ChEMBL document CHEMBL1134960, “Benzotrithiole 2-oxide: a new family of thiol-activated DNA-cleaving functionalities” (Bioorg Med Chem Lett, 2002).

Assays:
Type in all cases: functional, cell-based
[1] = tested on: A498; test: Cytotoxicity against human kidney carcinoma cell lines A4982LM
[2] = tested on: UMUC3; test: Cytotoxicity against bladder cancer cell lines UMUC3 was determined; conditions: Homo sapiens
[3] = Cytotoxicity against Breast cancer cell lines MDA-231 was determined; conditions: Homo sapiens
[4] = tested on: HT-29; test: Cytotoxicity against Colon cancer cell lines HT-29 was determined; conditions: Homo sapiens
[5] = Cytotoxicity against […] cancer cell lines PACA2 was determined; conditions: Homo sapiens
[6] = tested on: MCF7; test: Cytotoxicity against human breast carcinoma cell lines MCF-7
[7] = tested on: PC-3; test: Cytotoxicity against prostate cancer cell lines PC-3 was determined; conditions: Homo sapiens
[8] = tested on: A549; test: Cytotoxicity against […] cell lines A549 was determined; conditions: Homo sapiens

SMILES	IC50 [1]	IC50 [2]	IC50 [3]	IC50 [4]	IC50 [5]	IC50 [6]	IC50 [7]	IC50 [8]
COc1cccc2c1C(=O)c1c(O)c3c(c(O)c1C2=O)C[C@@](O)(C(=O)CO)C[C@@H]3O[C@H]1C[C@H](N)[C@H](O)[C@H](C)O1 [DOXORUBICIN]	0.0528 µM	0.0092 µM	0.00195 µM	0.0618 µM	0.0087 µM			
[O-][S+]1Sc2ccccc2S1	0.85 µM	0.366 µM	0.627 µM	0.0789 µM	0.982 µM	0.209 µM	0.0629 µM	0.151 µM
